The source made the active and inactive calls. Rule as the data show it, for most assays here: actives have a measured Kd and inactives only a lower limit.
What was measured:
[1] = target: Tyrosine-protein kinase BTK (Homo sapiens, UniProt Q06187)
[2] = target: T1, Calcium/calmodulin-dependent protein kinase type IV (Homo sapiens, UniProt Q16566)
T1 sequence (Q16566 whole entry): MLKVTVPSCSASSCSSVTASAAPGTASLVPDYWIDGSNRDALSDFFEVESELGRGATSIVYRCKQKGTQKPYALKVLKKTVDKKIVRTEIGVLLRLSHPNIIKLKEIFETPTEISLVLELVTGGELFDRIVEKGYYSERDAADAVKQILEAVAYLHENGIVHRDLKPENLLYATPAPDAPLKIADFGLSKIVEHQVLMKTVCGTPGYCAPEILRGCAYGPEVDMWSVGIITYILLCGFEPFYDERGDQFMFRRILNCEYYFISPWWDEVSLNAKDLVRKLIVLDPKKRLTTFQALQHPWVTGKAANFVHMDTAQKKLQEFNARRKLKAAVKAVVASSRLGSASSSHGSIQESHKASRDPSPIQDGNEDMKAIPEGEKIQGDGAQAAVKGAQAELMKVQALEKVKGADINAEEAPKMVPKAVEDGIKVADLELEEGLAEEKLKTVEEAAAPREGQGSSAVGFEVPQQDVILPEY

[3] = target: Chromodomain-helicase-DNA-binding protein 4 (Homo sapiens, UniProt Q14839)
Sequence of Chromodomain-helicase-DNA-binding protein 4 (Q14839 whole entry, canonical isoform): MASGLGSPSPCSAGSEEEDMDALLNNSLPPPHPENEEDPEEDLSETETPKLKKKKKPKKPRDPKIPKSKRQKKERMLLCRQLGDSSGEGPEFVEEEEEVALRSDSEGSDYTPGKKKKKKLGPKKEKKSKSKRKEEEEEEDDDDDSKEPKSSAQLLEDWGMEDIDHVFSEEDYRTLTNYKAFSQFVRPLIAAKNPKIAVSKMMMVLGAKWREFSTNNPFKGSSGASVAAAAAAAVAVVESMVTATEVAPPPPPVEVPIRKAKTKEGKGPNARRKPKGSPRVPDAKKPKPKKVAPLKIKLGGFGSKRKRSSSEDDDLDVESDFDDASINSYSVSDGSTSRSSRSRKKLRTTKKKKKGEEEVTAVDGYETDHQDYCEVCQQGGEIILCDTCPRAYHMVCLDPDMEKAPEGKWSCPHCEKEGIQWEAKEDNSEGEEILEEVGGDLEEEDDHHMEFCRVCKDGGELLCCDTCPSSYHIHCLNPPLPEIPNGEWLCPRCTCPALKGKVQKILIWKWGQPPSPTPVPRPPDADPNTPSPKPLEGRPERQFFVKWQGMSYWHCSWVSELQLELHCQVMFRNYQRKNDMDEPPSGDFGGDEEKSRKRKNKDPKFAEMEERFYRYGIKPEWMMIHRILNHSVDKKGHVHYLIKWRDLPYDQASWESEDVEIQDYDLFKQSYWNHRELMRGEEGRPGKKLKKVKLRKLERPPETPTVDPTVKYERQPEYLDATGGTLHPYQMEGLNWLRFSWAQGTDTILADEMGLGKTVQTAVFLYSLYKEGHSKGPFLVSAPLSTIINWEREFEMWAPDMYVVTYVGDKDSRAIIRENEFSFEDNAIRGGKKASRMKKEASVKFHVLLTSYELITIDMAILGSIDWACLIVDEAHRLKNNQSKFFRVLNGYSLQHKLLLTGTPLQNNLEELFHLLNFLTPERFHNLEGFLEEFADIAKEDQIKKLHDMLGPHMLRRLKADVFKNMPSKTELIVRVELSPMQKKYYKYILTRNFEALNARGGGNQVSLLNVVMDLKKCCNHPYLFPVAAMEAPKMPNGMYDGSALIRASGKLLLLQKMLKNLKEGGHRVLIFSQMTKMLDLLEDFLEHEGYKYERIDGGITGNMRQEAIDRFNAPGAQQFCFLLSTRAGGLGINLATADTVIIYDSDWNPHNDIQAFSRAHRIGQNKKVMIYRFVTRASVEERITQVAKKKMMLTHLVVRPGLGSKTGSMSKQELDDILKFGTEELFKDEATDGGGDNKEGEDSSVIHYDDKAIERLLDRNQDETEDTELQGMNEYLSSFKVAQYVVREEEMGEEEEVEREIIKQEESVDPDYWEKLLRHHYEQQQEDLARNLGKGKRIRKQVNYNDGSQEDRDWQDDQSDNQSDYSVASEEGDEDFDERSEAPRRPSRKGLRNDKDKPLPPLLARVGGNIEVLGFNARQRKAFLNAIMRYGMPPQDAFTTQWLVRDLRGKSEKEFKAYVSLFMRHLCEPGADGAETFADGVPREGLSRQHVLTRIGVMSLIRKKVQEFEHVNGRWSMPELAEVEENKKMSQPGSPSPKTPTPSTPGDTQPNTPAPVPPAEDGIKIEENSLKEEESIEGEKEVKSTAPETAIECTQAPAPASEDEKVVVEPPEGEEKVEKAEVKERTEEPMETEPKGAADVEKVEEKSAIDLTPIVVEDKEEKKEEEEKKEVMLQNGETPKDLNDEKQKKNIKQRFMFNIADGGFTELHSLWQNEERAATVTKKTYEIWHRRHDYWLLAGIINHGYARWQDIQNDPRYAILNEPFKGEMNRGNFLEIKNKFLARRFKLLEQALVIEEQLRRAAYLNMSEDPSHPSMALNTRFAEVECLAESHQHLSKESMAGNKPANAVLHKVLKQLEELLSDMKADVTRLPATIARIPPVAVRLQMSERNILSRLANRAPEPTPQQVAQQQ

[4] = target: Casein kinase I isoform alpha (Homo sapiens, UniProt P48729)
Sequence of Casein kinase I isoform alpha (P48729 whole entry, canonical isoform): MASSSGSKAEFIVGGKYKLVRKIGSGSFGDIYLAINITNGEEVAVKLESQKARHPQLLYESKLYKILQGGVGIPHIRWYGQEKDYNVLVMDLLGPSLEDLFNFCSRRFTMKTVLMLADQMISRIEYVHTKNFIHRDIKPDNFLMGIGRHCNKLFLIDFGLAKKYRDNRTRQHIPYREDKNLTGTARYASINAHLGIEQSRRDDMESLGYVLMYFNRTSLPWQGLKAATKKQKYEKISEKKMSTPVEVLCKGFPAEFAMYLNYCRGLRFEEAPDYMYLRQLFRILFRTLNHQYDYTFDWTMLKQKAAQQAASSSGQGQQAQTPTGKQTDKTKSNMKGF

[5] = target: ATP-dependent RNA helicase DDX3X (Homo sapiens, UniProt O00571)
Sequence of ATP-dependent RNA helicase DDX3X (O00571 whole entry): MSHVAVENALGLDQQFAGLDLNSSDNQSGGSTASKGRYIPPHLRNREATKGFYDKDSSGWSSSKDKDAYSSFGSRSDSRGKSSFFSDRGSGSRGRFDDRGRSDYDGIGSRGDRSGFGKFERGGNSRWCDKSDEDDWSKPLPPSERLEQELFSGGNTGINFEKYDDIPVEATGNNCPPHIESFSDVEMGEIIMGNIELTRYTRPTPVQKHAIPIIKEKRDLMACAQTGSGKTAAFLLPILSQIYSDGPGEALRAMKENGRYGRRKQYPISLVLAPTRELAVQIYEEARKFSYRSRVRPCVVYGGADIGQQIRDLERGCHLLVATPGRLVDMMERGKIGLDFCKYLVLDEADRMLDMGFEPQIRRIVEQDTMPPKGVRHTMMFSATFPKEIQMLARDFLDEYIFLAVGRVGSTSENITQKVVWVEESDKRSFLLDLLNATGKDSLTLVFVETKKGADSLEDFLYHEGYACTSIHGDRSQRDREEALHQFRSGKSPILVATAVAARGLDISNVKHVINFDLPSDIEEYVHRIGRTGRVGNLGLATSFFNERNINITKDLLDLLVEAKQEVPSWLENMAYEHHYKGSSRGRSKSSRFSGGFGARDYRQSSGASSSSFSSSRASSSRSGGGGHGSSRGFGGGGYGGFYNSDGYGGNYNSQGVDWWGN

[6] = target: Tyrosine-protein kinase Fer (Homo sapiens, UniProt P16591)
Sequence of Tyrosine-protein kinase Fer (P16591 whole entry): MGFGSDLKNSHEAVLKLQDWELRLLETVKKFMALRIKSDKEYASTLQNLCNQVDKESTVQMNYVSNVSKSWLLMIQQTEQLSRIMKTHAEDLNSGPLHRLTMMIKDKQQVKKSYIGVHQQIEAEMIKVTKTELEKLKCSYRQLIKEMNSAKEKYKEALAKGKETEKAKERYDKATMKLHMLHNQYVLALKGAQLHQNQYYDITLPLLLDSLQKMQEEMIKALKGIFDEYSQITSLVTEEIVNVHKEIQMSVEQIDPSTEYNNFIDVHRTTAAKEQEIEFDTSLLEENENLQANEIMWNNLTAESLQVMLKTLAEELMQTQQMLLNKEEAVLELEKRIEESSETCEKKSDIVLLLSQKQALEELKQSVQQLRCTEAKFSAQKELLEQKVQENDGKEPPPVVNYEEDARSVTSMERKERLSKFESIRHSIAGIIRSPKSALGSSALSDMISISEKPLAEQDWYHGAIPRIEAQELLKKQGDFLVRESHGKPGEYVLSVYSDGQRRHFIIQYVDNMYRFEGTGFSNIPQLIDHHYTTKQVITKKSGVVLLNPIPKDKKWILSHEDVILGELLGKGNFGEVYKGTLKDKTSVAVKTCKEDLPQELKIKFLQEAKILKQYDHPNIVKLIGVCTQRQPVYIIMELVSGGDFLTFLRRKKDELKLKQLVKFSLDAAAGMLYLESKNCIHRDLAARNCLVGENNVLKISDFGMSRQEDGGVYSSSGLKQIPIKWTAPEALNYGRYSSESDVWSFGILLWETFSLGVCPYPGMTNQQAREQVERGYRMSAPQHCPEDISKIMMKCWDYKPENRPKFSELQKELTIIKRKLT

[7] = target: Tyrosine-protein kinase FRK (Homo sapiens, UniProt P42685)
[8] = target: Insulin-like growth factor 1 receptor (Homo sapiens, UniProt P08069)
[9] = target: Mitogen-activated protein kinase kinase kinase kinase 5 (Homo sapiens, UniProt Q9Y4K4)
Sequence of Mitogen-activated protein kinase kinase kinase kinase 5 (Q9Y4K4 whole entry): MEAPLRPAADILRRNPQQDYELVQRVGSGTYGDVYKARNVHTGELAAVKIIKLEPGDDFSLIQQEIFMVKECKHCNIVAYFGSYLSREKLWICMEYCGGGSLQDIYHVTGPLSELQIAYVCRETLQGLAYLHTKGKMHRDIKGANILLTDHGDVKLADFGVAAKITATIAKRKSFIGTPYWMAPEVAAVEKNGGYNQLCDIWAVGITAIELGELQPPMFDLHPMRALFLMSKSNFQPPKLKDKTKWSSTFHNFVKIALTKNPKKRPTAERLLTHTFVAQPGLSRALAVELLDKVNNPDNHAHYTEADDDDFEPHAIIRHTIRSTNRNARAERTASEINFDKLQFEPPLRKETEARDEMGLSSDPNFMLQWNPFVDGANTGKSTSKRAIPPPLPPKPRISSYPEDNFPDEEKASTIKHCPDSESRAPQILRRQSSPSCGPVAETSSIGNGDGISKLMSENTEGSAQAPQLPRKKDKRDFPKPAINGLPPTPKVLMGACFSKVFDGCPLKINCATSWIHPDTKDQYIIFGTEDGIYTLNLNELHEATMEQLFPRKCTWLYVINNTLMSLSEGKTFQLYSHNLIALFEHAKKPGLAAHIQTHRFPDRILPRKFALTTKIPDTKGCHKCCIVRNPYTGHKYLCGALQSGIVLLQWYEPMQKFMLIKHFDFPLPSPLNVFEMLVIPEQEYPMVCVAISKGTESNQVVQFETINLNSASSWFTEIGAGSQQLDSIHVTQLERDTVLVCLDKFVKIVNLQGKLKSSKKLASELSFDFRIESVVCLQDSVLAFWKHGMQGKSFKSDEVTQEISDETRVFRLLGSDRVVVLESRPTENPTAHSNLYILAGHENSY

[10] = target: T2, MAP kinase-activated protein kinase 5 (Homo sapiens, UniProt Q8IW41)
T2 sequence (Q8IW41 whole entry): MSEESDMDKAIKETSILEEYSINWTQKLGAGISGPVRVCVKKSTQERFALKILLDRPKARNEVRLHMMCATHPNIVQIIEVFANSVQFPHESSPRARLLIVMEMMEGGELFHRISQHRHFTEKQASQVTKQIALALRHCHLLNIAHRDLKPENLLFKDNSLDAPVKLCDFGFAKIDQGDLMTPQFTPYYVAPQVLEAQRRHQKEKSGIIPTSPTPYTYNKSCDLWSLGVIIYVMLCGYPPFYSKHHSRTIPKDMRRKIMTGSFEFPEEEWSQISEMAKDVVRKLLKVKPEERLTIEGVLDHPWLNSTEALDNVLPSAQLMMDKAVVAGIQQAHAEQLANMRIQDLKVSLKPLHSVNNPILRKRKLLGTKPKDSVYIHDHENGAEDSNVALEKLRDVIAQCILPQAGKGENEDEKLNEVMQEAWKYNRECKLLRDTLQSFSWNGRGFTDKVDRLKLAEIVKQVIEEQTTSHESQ

[11] = target: Serine/threonine-protein kinase PAK 4 (Homo sapiens, UniProt O96013)
Pyridoxal kinase = target: T3, Pyridoxal kinase (Homo sapiens, UniProt O00764)
T3 sequence (O00764 whole entry): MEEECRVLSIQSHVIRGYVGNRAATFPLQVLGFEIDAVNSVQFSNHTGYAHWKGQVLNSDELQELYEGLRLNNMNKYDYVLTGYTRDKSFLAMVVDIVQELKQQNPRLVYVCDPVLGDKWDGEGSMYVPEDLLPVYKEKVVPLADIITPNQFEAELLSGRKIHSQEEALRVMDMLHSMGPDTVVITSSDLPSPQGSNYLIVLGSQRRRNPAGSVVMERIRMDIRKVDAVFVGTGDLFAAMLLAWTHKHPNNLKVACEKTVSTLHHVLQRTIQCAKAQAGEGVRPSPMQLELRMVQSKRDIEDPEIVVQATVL

[12] = target: T4, Serine/threonine-protein kinase D3 (Homo sapiens, UniProt O94806)
T4 sequence (O94806 whole entry): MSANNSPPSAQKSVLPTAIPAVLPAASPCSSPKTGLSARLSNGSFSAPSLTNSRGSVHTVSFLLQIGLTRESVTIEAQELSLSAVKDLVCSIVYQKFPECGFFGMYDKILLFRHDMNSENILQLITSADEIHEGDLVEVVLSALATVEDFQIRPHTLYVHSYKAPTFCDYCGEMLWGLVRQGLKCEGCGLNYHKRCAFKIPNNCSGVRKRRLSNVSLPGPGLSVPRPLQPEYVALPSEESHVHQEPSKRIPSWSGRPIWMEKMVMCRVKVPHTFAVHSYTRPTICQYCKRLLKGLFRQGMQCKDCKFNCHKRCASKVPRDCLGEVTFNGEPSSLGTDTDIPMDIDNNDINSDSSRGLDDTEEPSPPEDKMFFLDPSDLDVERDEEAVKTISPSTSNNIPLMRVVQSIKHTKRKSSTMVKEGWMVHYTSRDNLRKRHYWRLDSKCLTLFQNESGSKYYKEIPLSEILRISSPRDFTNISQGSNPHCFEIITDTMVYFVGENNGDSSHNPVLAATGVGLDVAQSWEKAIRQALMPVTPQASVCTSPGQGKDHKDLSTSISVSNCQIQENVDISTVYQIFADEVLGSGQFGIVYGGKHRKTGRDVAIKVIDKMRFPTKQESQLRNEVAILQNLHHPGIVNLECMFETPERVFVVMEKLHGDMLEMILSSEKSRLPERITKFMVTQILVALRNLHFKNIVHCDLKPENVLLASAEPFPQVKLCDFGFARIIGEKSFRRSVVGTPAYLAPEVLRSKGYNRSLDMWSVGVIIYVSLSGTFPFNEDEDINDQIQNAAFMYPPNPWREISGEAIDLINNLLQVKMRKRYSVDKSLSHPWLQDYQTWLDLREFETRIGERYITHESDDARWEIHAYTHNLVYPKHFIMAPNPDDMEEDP

[13] = target: Serine/threonine-protein kinase 26 (Homo sapiens, UniProt Q9P289)
Sequence of Serine/threonine-protein kinase 26 (Q9P289 whole entry): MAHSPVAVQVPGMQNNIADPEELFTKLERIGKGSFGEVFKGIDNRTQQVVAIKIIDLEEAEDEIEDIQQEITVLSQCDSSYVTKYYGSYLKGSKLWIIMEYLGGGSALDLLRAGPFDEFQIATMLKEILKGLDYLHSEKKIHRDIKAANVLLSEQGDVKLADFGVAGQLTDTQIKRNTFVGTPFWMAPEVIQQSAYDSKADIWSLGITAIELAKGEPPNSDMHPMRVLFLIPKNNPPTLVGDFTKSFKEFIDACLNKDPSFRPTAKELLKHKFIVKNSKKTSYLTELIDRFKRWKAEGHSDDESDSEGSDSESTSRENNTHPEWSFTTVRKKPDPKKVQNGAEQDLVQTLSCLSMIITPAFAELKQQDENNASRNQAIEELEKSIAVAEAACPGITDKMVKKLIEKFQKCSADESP

Adenosine kinase = Adenosine kinase (Homo sapiens, UniProt P55263)
Also: in the data inactive means no Kd found up to 30 µM.

| SMILES | Kd [1] | Kd [2] | Kd [3] | Kd [4] | Kd [5] | Kd [6] | Kd [7] | Kd [8] | Kd [9] | Kd [10] | Kd [11] | Kd (Pyridoxal kinase) | Kd [12] | Kd [13] | Kd (Adenosine kinase) |
| --- | --- | --- | --- | --- | --- | --- | --- | --- | --- | --- | --- | --- | --- | --- | --- |
| Cn1ncc(Cl)c1-c1cc(C(=O)N[C@H](CN)Cc2cccc(F)c2)sc1Cl [AFURESERTIB] | > 30 µM (inactive) | > 30 µM (inactive) | > 30 µM (inactive) | > 30 µM (inactive) | > 30 µM (inactive) | > 30 µM (inactive) | > 30 µM (inactive) | > 30 µM (inactive) | > 30 µM (inactive) | > 30 µM (inactive) | > 30 µM (inactive) | > 30 µM (inactive) | > 30 µM (inactive) | > 30 µM (inactive) |  |
| COc1cc(N2CCC(N3CCN(C)CC3)CC2)ccc1Nc1ncnc(Nc2ccccc2S(=O)(=O)C(C)C)n1 [ASP-3026] | 0.494 µM (active) | > 30 µM (inactive) | > 30 µM (inactive) | > 30 µM (inactive) | > 30 µM (inactive) | 0.363 µM (active) | 0.39 µM (active) | 9.72 µM (active) | > 30 µM (inactive) | > 30 µM (inactive) | > 30 µM (inactive) | > 30 µM (inactive) | > 30 µM (inactive) | > 30 µM (inactive) |  |
| O=C(c1ccc(F)c(F)c1Nc1ccc(I)cc1F)N1CC(O)([C@@H]2CCCCN2)C1 [COBIMETINIB] | > 30 µM (inactive) | > 30 µM (inactive) | > 30 µM (inactive) | > 30 µM (inactive) | > 30 µM (inactive) | > 30 µM (inactive) | > 30 µM (inactive) | > 30 µM (inactive) | > 30 µM (inactive) | > 30 µM (inactive) | > 30 µM (inactive) | > 30 µM (inactive) | > 30 µM (inactive) | > 30 µM (inactive) |  |

The remaining lines, values ahead:

| Kd [1] | Kd [2] | Kd [3] | Kd [4] | Kd [5] | Kd [6] | Kd [7] | Kd [8] | Kd [9] | Kd [10] | Kd [11] | Kd (Pyridoxal kinase) | Kd [12] | Kd [13] | Kd (Adenosine kinase) | SMILES |
| --- | --- | --- | --- | --- | --- | --- | --- | --- | --- | --- | --- | --- | --- | --- | --- |
| > 30 µM (inactive) | > 30 µM (inactive) |  | > 30 µM (inactive) | > 30 µM (inactive) | > 30 µM (inactive) | > 30 µM (inactive) | > 30 µM (inactive) | > 30 µM (inactive) | > 30 µM (inactive) | > 30 µM (inactive) | > 30 µM (inactive) | > 30 µM (inactive) | > 30 µM (inactive) | > 30 µM (inactive) | C[C@@H](Nc1cc(F)cc(F)c1)c1cc(C(=O)N(C)C)cc2c(=O)cc(N3CCOCC3)oc12 [AZD-8186] |
| > 30 µM (inactive) | > 30 µM (inactive) |  | > 30 µM (inactive) | > 30 µM (inactive) | > 30 µM (inactive) | > 30 µM (inactive) | > 30 µM (inactive) | > 30 µM (inactive) | > 30 µM (inactive) | > 30 µM (inactive) | > 30 µM (inactive) | > 30 µM (inactive) | > 30 µM (inactive) | > 30 µM (inactive) | CNC(=O)c1ccc(-c2cnc3ncc(Cc4ccc5ncccc5c4)n3n2)cc1F [CAPMATINIB] |
| > 30 µM (inactive) | > 30 µM (inactive) | > 30 µM (inactive) | > 30 µM (inactive) | > 30 µM (inactive) | > 30 µM (inactive) | > 30 µM (inactive) | > 30 µM (inactive) | > 30 µM (inactive) | > 30 µM (inactive) | > 30 µM (inactive) | > 30 µM (inactive) | > 30 µM (inactive) | > 30 µM (inactive) |  | O=C1NC(=O)/C(=C/c2ccc3nccc(-c4ccncc4)c3c2)S1 [GSK-1059615] |
| > 30 µM (inactive) | > 30 µM (inactive) |  | > 30 µM (inactive) | > 30 µM (inactive) | > 30 µM (inactive) | > 30 µM (inactive) | > 30 µM (inactive) | > 30 µM (inactive) | > 30 µM (inactive) | > 30 µM (inactive) | > 30 µM (inactive) | > 30 µM (inactive) | > 30 µM (inactive) | > 30 µM (inactive) | CNC(=O)c1ccc(C)c(-n2c(C)cc(OCc3ccc(F)cc3F)c(Br)c2=O)c1 [PH-797804] |

From ChEMBL document CHEMBL3991601, “The target landscape of clinical kinase drugs” (Science, 2017)
